The record followed here is patent US20240216312A1, “PPAR-AGONISTS FOR USE IN THE TREATMENT OF LIVER FAILURE” (Genfit, priority 2021, published 2024).

The subject of one series is HepG2 cells. Briefly: Staurosporin-induced apoptosis in HepG2 cells, caspase 3/7 activity. The following applies: 16 h pre-treatment, then 10 μM staurosporin 4 h; for inhibition at 0.3 µM: Homo sapiens, HepG2, 0.3 μM, read-out: % Inhibition of caspase activity over mean Veh.; for % Inhibition of caspase activity over mean Veh.: 0.3 μM. Format: cell-based, human. As for the experimental part:
In order to evaluate the effect of the compounds on human hepatocytes that undergo a cellular stress induced by staurosporin, the human hepatoblastoma-derived HepG2 cell line (ECACC, #85011430, Sigma-Aldrich) was cultured in high-glucose DMEM medium (#41965, Gibco, France) supplemented with 10% of fetal bovine serum (FBS, #10270, Gibco), 1% penicillin/streptomycin (#15140, Gibco), 1% sodium pyruvate (#11360, Gibco) and 1% MEM non-essential amino acids (#11140, Gibco) in a 5% CO2 incubator at 37° C.
To evaluate caspase 3/7 activity, which is a surrogate marker of apoptosis, 1.5×10^4 cells were plated in a 384-well plate (#781080, Greiner, France). After cell adherence (8 hours), cells were serum starved for 16 h in the presence of 0.3 μM of compounds or vehicle. Cpd.1 was also used at 3 and 10 μM. Thereafter, cells were treated with 10 μM staurosporin (#569397, Sigma-Aldrich, Germany) supplemented with compound for additional 4 hours before cell lysis and caspase activity measurement.
Caspase 3/7 activity was measured using Caspase Glow™ 3/7 assay (#G8093, Promega, USA). Luminescence was measured using a Spark microplate reader (#30086376, Tecan, USA). The amount of luminescence (RLU) directly correlates with caspase 3/7 activity.

Series [1] concerns LPS-induced endotoxemia, Sprague Dawley rats. Briefly: LPS-induced endotoxemia in rats, hepatic markers and serum TNFα. The series is classed as in vivo. The following applies: rat, 3 h after LPS.
Series [2] relates to THP1 macrophages. Briefly: LPS (Klebsiella pneumoniae) activation of THP1 macrophages, MCP1 and TNFα secretion (HTRF). Format: cell-based, human. The following applies: for inhibition at 1 µM / inhibition at 10 µM: Homo sapiens; for inhibition at 1 µM: THP-1, 1 μM; for inhibition at 10 µM: THP-1, 10 μM. As for the experimental part: (§1) In order to test the efficacy of the compounds on macrophage activation and pro-inflammatory cytokine production, 2.5×10^4 THP-1 cells were cultured in a 384-well plate and treated with 100 ng/mL PMA (#P8139, Sigma) for 24 h to induce differentiation into macrophages.
Then, medium was removed and FBS-deprived medium containing 1 or 10 μM compound was added for 24 h. Finally, THP1 macrophages were stimulated for 6 h with 100 ng/mL LPS (Klebsiella pneumoniae, #L4268, Sigma-Aldrich).
Monocyte chemoattractant protein 1 (MCP1) and Tumor necrosis α (TNFα) were measured in cell supernatants by Homogeneous Time Resolved Fluorescence (HTRF, #62[…] for TNFα, and 62HCCL2PEG for MCP1, Cisbio). Fluorescence was measured with Infinite 500 (#30019337, Tecan) to determine the concentration of cytokines.
In order to evaluate the effect of the compounds according to the invention on LPS-induced cytokines production by macrophages, the percentage of inhibition over the vehicle condition were calculated for each compound at 1 and 10 μM.

For series [3], the system named is CLP induced polymicrobial sepsis, C57BL6J mice. Briefly: Cecal ligation and puncture (CLP) sepsis model in mice, survival. The series is classed as in vivo. The following applies: mouse CLP. As for the experimental part:
This study aims to investigate the efficacy of Cpd.1 in cecal ligation and puncture (CLP) model in C57BL6J (BL6) male mice. The efficacy of the test compound was evaluated based on the survival rate of the animals within the study period.
C57BL6J male mice (supplier Janvier—France) at 9 weeks of age and weighing 23-25 g on arrival were anesthetized with 250 μL of xylazine/ketamine solution (20 mg/100 g body weight) by intraperitoneal route. A 1-1.5 cm abdominal midline incision was made, and the caecum was located and tightly ligated at half the distance between distal pole and the base of the cecum with 4-0 silk suture (mild grade). The caecum was punctured through-and-through once with a 21-gauge needle from mesenteric toward antimesenteric direction after medium ligation. A small amount of stool was extruded to ensure that the wounds were patent. Then the cecum was replaced in its original position within the abdomen, which was closed with sutures and wound clips. Mice were followed for body weight evolution and mortality rate until […].
Cpd.1 or vehicle (Labrafil M 1944 CS, #3063, Gattefossé) was administered at 0.3 mg/kg, p.o. for three days before CLP surgery. The day of CLP (day 0), Cpd.1 was administrated 1 h before surgery and pursued daily until day 6. Experiment was terminated at day 7. […]
Body weight and survival rate were measured for 7 days.

The test system of series [4] is LPS-induced endotoxemia, Sprague Dawley rats. Briefly: LPS-induced endotoxemia in rats, serum IL6 and IL1β (ELISA). The series is classed as in vivo. The following applies: rat, 3 mg/kg/day oral 3 days before LPS 1 mg/kg i.p., 3 h after LPS. As for the experimental part:
To evaluate the efficacy of the compounds to reduce the cytokine production in response to LPS-induced endotoxemia, male Sprague Dawley rats of 250-275 g from Janvier Labs (France) received a single intraperitoneal injection of 1 mg/kg LPS (Escherichia coli 0111:B4, #L2630, Sigma).
Cpd.1 (3 mg/kg/day) or vehicle (Labrafil M 1944 CS, #3063, Gattefossé) was administered by oral gavage during the 3 days before LPS injection. Rats were euthanized by cervical dislocation 3 hours after treatment. Blood samples were obtained from retro-orbital sinus puncture on animals slightly asleep with isoflurane (Isoflurin 1000 mg/g, GTIN 03760087152678, Axience) just before sacrifice.
The serum concentrations of interleukin-6 (IL6) and interleukin-1β (L1β) were determined by ELISA (SR6000B and SRLB00, respectively, R&D Systems).

The next series relates to THP-1 cells. Briefly: PMA-induced differentiation of THP-1 monocytes into macrophages, TNFα and MCP1 secretion (HTRF). The series is classed as cell-based. The following applies: Homo sapiens, PMA-stimulated THP1 monocytes, 24 h. As for the experimental part: In order to test the efficacy of the compounds to inhibit the activation of the immune system, we used the human monocytic cell line THP-1 (Sigma). THP1 monocytes were cultured in RPMI 1640 with L-glutamine medium (#10-040-CV, Corning) supplemented with 10% fetal bovine serum (FBS, #10270, Gibco), 1% penicillin/streptomycin (#15140, Gibco) and 25 mM Hepes (H0887, Sigma) in a 5% C02 incubator at 37° C.
To evaluate the effect of the compounds on monocyte differentiation, 2.5×10^4 THP-1 cells were cultured for 24 h in a 384-well plate in FBS-deprived culture medium containing Cpd.1 in dose ranges, as well as 5 or 100 ng/mL phorbol 12-myristate 13-acetate (PMA, #P8139, Sigma), as indicated, to induce differentiation into macrophages.
Tumor necrosis α (TNFα) and monocyte chemoattractant protein 1 (MCP1) were measured in cell supernatants by Homogeneous Time Resolved Fluorescence (HTRF, #62[…] for TNFα, and 62HCCL2PEG for MCP1, Cisbio). Fluorescence was measured with Infinite 500 (#30019337, Tecan) to determine the concentration of cytokines.
A general note: TR-FRET usually uses a lanthanide donor and a delayed reading to cut background.

Series [5] has as its system LPS/GaIN acute liver failure, C57BL/6J mice. Briefly: LPS/GalN model of acute liver failure in mice, hepatic gene expression, serum cytokines and albumin. Format: in vivo, mouse. The following applies: 3 mg/kg/day oral 3 days before LPS/GaIN, 4 h after injection.
The test system of series [6] is THP1 macrophages. Briefly: LPS (E. coli) activation of THP1 differentiated macrophages, TNFα and MCP1 secretion. Format: cell-based, human. The following applies: compound 24 h, then 100 ng/mL LPS E. coli 6 h. As for the experimental part: as §1
Then, medium was removed and FBS-deprived medium containing the compound of formula (I) was added for 24 h. Finally, THP1 macrophages were stimulated with 100 ng/mL LPS (E. coli 055:B5, #L4005, Sigma) for 6 h.

Where [7] appears, read: 24 h, then LPS Klebsiella 6 h, read-out: % inhibition of MCP1 secretion over mean Veh.
[8] abbreviates: 10 μM, 24 h, then LPS Klebsiella 6 h, 10 µM.
Where [9] appears, read: 24 h, then LPS Klebsiella 6 h, read-out: % inhibition of TNFα secretion over mean Veh.
[10] abbreviates: 100 mg/kg/day oral 3 days before LPS.

Read-outs that look alike come from different tables or passages of the source.

Broadly, the inhibition is the drop in the measured response relative to a control, in per cent. Turning to `COC(CCc1cc(C)c(OC(C)(C)C(=O)O)c(C)c1)c1ccc(OC(F)(F)F)cc1` (stereo not drawn) [Cpd. 1, 2-[4-(3-methoxy-3-(4-(trifluoromethoxy)phenyl)propyl)-2,6-dimethylphenoxy]-2-methylpropanoic acid], the “reduction of staurosporin-induced caspase activity” value in the series with HepG2 cells (0.3 μM to 10 μM) was “dose-dependent manner”. In addition, the inhibition at 0.3 µM in the series with HepG2 cells was found to be 26%. Also, in series [1] (3 mg/kg/day oral 3 days before LPS), the “serum total bilirubin level compared to vehicle” value is “completely restored”. In the series on THP1 macrophages [2] (setting [7]), the inhibition at 1 µM was 108% and the inhibition at 10 µM is 120%. Moreover, in the series on THP1 macrophages [2] (THP1 macrophages, in words, concentration not given), the “production of MCP1 induced by LPS Klebsiella” value is reported as “overpassing the untreated condition”. The “side effects after each administration” value in series [3] (0.3 mg/kg p.o.) is given as “No side effect”. Further, the “increase in survival rate compared to CLP+Vehicle group” value in series [3] (0.3 mg/kg p.o. from 3 days before surgery, daily, Day 7) is recorded as 47%. Besides, in series [4], the “reduction of serum IL1β level” value is reported as 31% and the “reduction of serum IL6 level” value is given as 40%. In addition, the inhibition at 1 µM in the series with THP-1 cells (read-out: inhibition of MCP1 content in the supernatant) is ~50%. The inhibition at 1 µM with THP-1 cells (read-out: inhibition of TNFα content in the supernatant) is ~50%. Moreover, in series [5] (mouse liver), the “decrease of hepatic Ccl2 mRNA expression” value was 52%, the “decrease of hepatic IL1b mRNA expression” value is recorded as 46%, the “decrease of hepatic IL6 mRNA expression” value turned out to be 52% and the “decrease of hepatic TNF mRNA expression” value was determined as 40%. For the same compound, in series [5] (mouse liver), the “reduction of hepatic Cd68 mRNA expression” value worked out at 41%. For the same compound, in series [5] (mouse serum), the “reduction of circulating CCL2 level compared to vehicle” value is 59%, the “reduction of circulating IL6 level compared to vehicle” value is reported as 62% and the “reduction of circulating TNFα level compared to vehicle” value was 51%. Further, in the series with THP1 macrophages [6], the “reduction of TNFα secretion” value was “potent at reducing”. Also, the “reduction of MCP1 secretion” value with THP1 macrophages [6] (all doses tested) is listed as “overpassing the untreated condition”.

Regarding `COC(CCc1cc(C)c(OC(C)(C)C(=O)O)c(C)c1)c1ccc(C(F)(F)F)cc1` (stereo not drawn) [Cpd. 13, 2-(4-(3-methoxy-3-(4-(trifluoromethyl)phenyl)propyl)-2,6-dimethylphenoxy)-2-methylpropanoic acid], the “% Inhibition of caspase activity over mean Veh.” value in the series on HepG2 cells came out at 79%. Further, in the series on THP1 macrophages [2] (setting [8]), the “% inhibition of MCP1 secretion over mean Veh.” value turned out to be 111% and the “% inhibition of TNFα secretion over mean Veh.” value came out at 18%. In addition, the inhibition at 1 µM in the series with THP1 macrophages [2] (setting [7]) is 99%. In the series on THP1 macrophages [2] (setting [9]), the inhibition at 1 µM worked out at 0% and the inhibition at 10 µM was 11 to 58%.

As to `COC(CCc1cc(C)c(OC(C)(C)C(=O)O)c(C)c1)c1ccc(SC)cc1` (stereo not drawn) [Cpd. 4, 2-[2,6-dimethyl-4-[3-[4-(methylthio)phenyl]-3-methoxypropyl]phenoxy]-2-methylpropanoic acid], in the series on HepG2 cells, the “% Inhibition of caspase activity over mean Veh.” value is reported as 32% and the inhibition at 0.3 µM fell in the range of 26 to 79%. For the same compound, in the series with THP1 macrophages [2] (setting [8]), the “% inhibition of MCP1 secretion over mean Veh.” value turned out to be 110%. Also, the inhibition at 1 µM with THP1 macrophages [2] (setting [7]) was 100%.

With `CC(C)OC(=O)C(C)(C)Oc1ccc(C(=O)c2ccc(Cl)cc2)cc1` [Cpd. 19, fenofibrate], in series [1] (setting [10]), the “reduction of LPS-induced serum TNFα level” value is on record as 85% and the “restoration of serum albumin concentration compared to vehicle” value is 79%.

For `Cc1cc(CCC(O)c2ccc(OC(F)(F)F)cc2)cc(C)c1OC(C)(C)C(=O)O` (stereo not drawn) [Cpd. 6, 2-(4-(3-hydroxy-3-(4-(trifluoromethoxy)phenyl)propyl)-2,6-dimethylphenoxy)-2-methylpropanoic acid], the inhibition at 0.3 µM in the series on HepG2 cells is 26 to 79%. For the same compound, the inhibition at 1 µM in the series with THP1 macrophages [2] (setting [7]) was determined as 94%.
